Data taken from patent publication EP2567959B1, “6-(4-HYDROXY-PHENYL)-3-STYRYL-1H-PYRAZOLO[3,4-B]PYRIDINE-4-CARBOXYLIC ACID AMIDE DERIVATIVES AS KINASE INHIBITORS” (SANOFI, priority 2011, dated 2013).

Target: T1, human full-length recombinant PKC βII (Homo sapiens, UniProt P05771)
T1 construct: Active human full-length recombinant PKC βII; purchased Invitrogen GmbH, Darmstadt, Germany
Assay: Determination of PKC βII inhibition (Caliper mobility-shift kinase assay, phosphorylation of fluorescein peptide substrate)
Assay type: biochemical
Settings: final compound concentration 1.14 µM (±0.15 µM); 60 min incubation at 32 °C
Method: Determination of PKC βII inhibition
PKC βII inhibition was determined according to the following protocol:
Active human full-length recombinant PKC βII and the peptide substrate, Fluorescein-RFARKGSLRQKNV, were purchased from Invitrogen GmbH, Darmstadt, Germany. Adenosine-5'-triphosphate (ATP), bovine serum albumine (BSA), dimethylsulphoxide (DMSO), 4-(2-hydroxyethyl)piperazine-1-ethanesulfonic acid (Hepes), Triton X-100, 1,2-Dioleoyl-sn-glycerol (DAG), L-α-Phosphatidyl-L-serine (PS), calcium chloride (CaCl2), and Pluronic F-68 were purchased from Sigma-Aldrich, Munich, Germany. Magnesium chloride, 1 M sodium hydroxide solution, 1M hydrochloric acid solution and EDTA were obtained from Merck Biosciences, Darmstadt, Germany.
Test compounds were diluted to three times the test concentration in buffer 1 (30 mM Hepes-NaOH, pH 7.4, 0.01 % Pluronic F-68 and 3 % (v/v) DMSO). The PKC βII enzyme was diluted to a concentration of 30 ng/ml in buffer 2 (30 mM Hepes-NaOH, pH 7.4, 15 mM MgCl2,150 µM CaCl2, 150 µg/ml PS, 60 µg/ml DAG, and 0.045 % (w/v) Triton X-100). The peptide substrate and ATP were diluted to concentrations of 3 µM and 120 µM, respectively, in buffer 2. Two µl of the compound solution were mixed with 2 µl of the diluted enzyme in a 384-well small volume microtiter plate (Greiner, Bio-One, Frickenhausen, Germany), and the kinase reaction was initiated by addition of 2 µl of the solution containing peptide substrate and ATP. After 60 min incubation at 32 °C, the reaction was stopped by addition of 20 µl of a solution containing 130 mM Hepes-NaOH, pH 7.4, 0.0195 % (v/v) Brij-35, 6.5 mM EDTA, 0.13 % chip coating reagent 3 (Caliper Lifescience Inc, Hopkinton, MA) and 6.5 % (v/v) DMSO. Phosphorylation of the substrate peptide was then detected on a Caliper 3000 instrument essentially as described by Pommereau et al (J. Biomol. Screening 2004, 9(5), 409-416). Separation conditions were as follows: Pressure -0.8 psi, upstream voltage - 3000 V, downstream voltage -800 V. Positive controls (buffer 1 instead of compound) and negative controls (buffer 1 instead of compound and buffer 2 instead of kinase solution) were run in parallel on each plate. Fractional turnover (R) was determined as the height of the peak of the phosphorylated peptide product divided by the sum of the unphosphorylated substrate and phosphorylated product peak heights. Percent-inhibition values for the test compounds were determined using the formula % Inhibition = 100*(1-(Rcompound-Rnegative control)/(Rpositive control-Rnegative control). [formula]
In the following table % inhibition values observed with example compounds at a final concentration of 1.14 µM (±0.15 µM) are listed: […]

T1 sequence (P05771 1-673 isoform P05771-2): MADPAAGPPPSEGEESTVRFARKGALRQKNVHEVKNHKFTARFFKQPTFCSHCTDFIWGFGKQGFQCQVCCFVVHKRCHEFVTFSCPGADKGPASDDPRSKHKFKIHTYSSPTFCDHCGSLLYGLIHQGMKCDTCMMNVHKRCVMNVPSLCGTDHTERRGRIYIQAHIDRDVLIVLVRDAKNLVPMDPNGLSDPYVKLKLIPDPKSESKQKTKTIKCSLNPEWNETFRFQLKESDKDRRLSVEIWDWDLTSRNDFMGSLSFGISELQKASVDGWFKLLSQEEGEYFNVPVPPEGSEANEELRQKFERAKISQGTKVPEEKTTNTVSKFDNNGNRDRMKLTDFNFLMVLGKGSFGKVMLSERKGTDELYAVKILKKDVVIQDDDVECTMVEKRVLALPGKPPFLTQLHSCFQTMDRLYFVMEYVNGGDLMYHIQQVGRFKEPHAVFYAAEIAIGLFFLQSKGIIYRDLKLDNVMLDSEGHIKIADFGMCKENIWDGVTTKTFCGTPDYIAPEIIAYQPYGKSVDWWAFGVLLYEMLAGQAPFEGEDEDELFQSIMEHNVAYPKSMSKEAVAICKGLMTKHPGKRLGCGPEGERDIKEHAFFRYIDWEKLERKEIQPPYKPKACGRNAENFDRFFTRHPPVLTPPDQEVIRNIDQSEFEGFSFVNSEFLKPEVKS

| inhibition at 1.14 µM [%] | Compound |
| --- | --- |
| 98 | COc1ccccc1/C=C/c1n[nH]c2nc(-c3ccc(O)cc3)cc(C(=O)N3CCNCC3)c12 [Example 60, {6-(4-hydroxy-phenyl)-3-[(E)-2-(2-methoxy-phenyl)-vinyl]-1H-pyrazolo[3,4-b]pyridin-4-yl}-piperazin-1-yl-methanone] |
| 86 | Cc1cc(F)ccc1/C=C/c1n[nH]c2nc(-c3ccc(O)cc3)cc(C(=O)N3CCNCC3)c12 [Example 61, [3-[(E)-2-(4-Fluoro-2-methyl-phenyl)-vinyl]-6-(4-hydroxy-phenyl)-1H-pyrazolo[3,4-b]pyridin-4-yl]-piperazin-1-yl-methanone] |
| 57 | CCCC[C@H]1CNCCN1C(=O)c1cc(-c2ccc(O)cc2)nc2[nH]nc(/C=C/c3ccccc3)c12 [Example 76, ((S)-2-Butyl-piperazin-1-yl)-[6-(4-hydroxy-phenyl)-3-((E)-styryl)-1H-pyra-zolo[3,4-b]-pyridin-4-yl]-methanone] |
| 98 | COc1ccc(/C=C/c2n[nH]c3nc(-c4ccc(O)cc4)cc(C(=O)N4CCNCC4)c23)cc1C [Example 73, {6-(4-Hydroxy-phenyl)-3-[(E)-2-(4-methoxy-3-methyl-phenyl)-vinyl]-1H-pyrazolo[3,4-b]pyridin-4-yl}-piperazin-1-yl-methanone] |
| 100 | CS(=O)(=O)c1cccc(/C=C/c2n[nH]c3nc(-c4ccc(O)cc4)cc(C(=O)N4CCNCC4)c23)c1 [Example 22, {6-(4-hydroxy-phenyl)-3-[(E)-2-(3-methanesulfonyl-phenyl)-vinyl]-1H-pyrazolo[3,4-b]-pyridin-4-yl}-piperazin-1-yl-methanone] |
| 97 | O=C(c1cc(-c2ccc(O)cc2)nc2[nH]nc(/C=C/c3ccc(OC(F)F)cc3)c12)N1CCNCC1 [Example 41, [3-[(E)-2-(4-Difluoromethoxy-phenyl)-vinyl]-6-(4-hydroxy-phenyl)-1H-pyrazolo[3,4-b]pyridin-4-yl]-piperazin-1-yl-methanone] |
| 90 | O=C(c1cc(-c2ccc(O)cc2)nc2[nH]nc(/C=C/c3cc(Cl)cc(N4CCCCC4)c3)c12)N1CCNCC1 [Example 30, [3-[(E)-2-(3-Chloro-5-pipe-ridin-1-yl-phe-nyl)-vinyl]-6-(4-hydroxy-phenyl)-1H-pyrazolo[3,4-b]pyridin-4-yl]-piperazin-1-yl-methanone] |
| 99 | CS(=O)(=O)Cc1cccc(/C=C/c2n[nH]c3nc(-c4ccc(O)cc4)cc(C(=O)N4CCNCC4)c23)c1 [Example 15, {6-(4-Hydroxy-phenyl)-3-[(E)-2-(3-methanesulfonylmethyl-phenyl)-vinyl]-1H-pyrazolo[3,4-b]pyridin-4-yl}-piperazin-1-yl-methanone] |
| 96 | O=C(c1cc(-c2ccc(O)cc2)nc2[nH]nc(/C=C/c3cccc(N4CCCCC4)c3)c12)N1CCNCC1 [Example 26, {6-(4-Hydroxy-phenyl)-3-[(E)-2-(3-piperidin-1-yl-phenyl)-vinyl]-1H-pyrazolo[3,4-b]pyridin-4-yl}-piperazin-1-yl-methanone] |
| 94 | O=C(c1cc(-c2ccc(O)cc2)nc2[nH]nc(CCc3ccccc3)c12)N1CCNCC1 [Example 17, [6-(4-Hydroxy-phenyl)-3-phenethyl-1H-pyrazolo[3,4-b]pyridin-4-yl]-piperazin-1-yl-methanone] |
| 99 | CN(C)c1cccc(/C=C/c2n[nH]c3nc(-c4ccc(O)cc4)cc(C(=O)N4CCNCC4)c23)c1 [Example 23, [3-[(E)-2-(3-Dimethylamino-phenyl)-vinyl]-6-(4-hydroxy-phenyl)-1H-pyra-zolo[3,4-b]pyri-din-4-yl]-pipe-razin-1-yl-methanone] |
| 98 | Cc1cccc(/C=C/c2n[nH]c3nc(-c4ccc(O)cc4)cc(C(=O)N4CCNCC4)c23)c1 [Example 38, [6-(4-Hydroxy-phenyl)-3-((E)-2-m-tolyl-vinyl)-1H-pyrazolo[3,4-b]pyridin-4-yl]-piperazin-1-yl-methanone] |
| 94 | Cc1ccccc1/C=C/c1n[nH]c2nc(-c3ccc(O)cc3)cc(C(=O)N3CCNCC3)c12 [Example 69, [6-(4-Hydroxy-phenyl)-3-((E)-2-o-tolyl-vinyl)-1H-pyrazolo[3,4-b]pyridin-4-yl]-piperazin-1-yl-methanone] |
| 81 | O=C(c1cc(-c2ccc(O)cc2)nc2[nH]nc(CCC3CCCCC3)c12)N1CCNCC1 [Example 36, [3-(2-cyclohexyl-ethyl)-6-(4-hydroxy-phenyl)-1H-pyrazolo[3,4-b]pyridin-4-yl]-piperazin-1-yl-methanone] |
| 19 | O=C(c1cc(-c2ccc(O)cc2)nc2[nH]nc(/C=C/c3ccccc3)c12)N1CCN(C2CC2)CC1 [Example 85, (4-Cyclopropyl-piperazin-1-yl)-[6-(4-hydroxy-phenyl)-3-((E)-styryl)-1H-pyra-zolo[3,4-b]py-ridin-4-yl]-methanone] |
| 97 | O=C(c1cc(-c2ccc(O)cc2)nc2[nH]nc(/C=C/c3cccc(Cl)c3)c12)N1CCNCC1 [Example 48, [3-[(E)-2-(3-Chloro-phenyl)-vinyl]-6-(4-hydroxy-phenyl)-1H-pyrazolo[3,4-b]pyridin-4-yl]-piperazin-1-yl-methanone] |
| 97 | O=C(c1cc(-c2ccc(O)cc2)nc2[nH]nc(/C=C/c3ccc(F)cc3)c12)N1CCNCC1 [Example 37, [3-[(E)-2-(4-Fluoro-phenyl)-vinyl]-6-(4-hydroxy-phenyl)-1H-pyrazolo[3,4-b]pyridin-4-yl]-piperazin-1-yl-methanone] |
| 85 | CC(C)C[C@H]1CN(C(=O)c2cc(-c3ccc(O)cc3)nc3[nH]nc(/C=C/c4ccccc4)c23)CCN1 [Example 5, [6-(4-Hydroxy-phenyl)-3-((E)-styryl)-1H-pyrazolo[3,4-b]pyridin-4-yl]-((S)-3-isobutyl-piperazin-1-yl)-methanone] |
| 97 | O=C(c1cc(-c2ccc(O)cc2)nc2[nH]nc(/C=C/c3ccc(Oc4ccccc4)cc3)c12)N1CCNCC1 [Example 44, {6-(4-hydroxy-phenyl)-3-[(E)-2-(4-phenoxy-phenyl)-vinyl]-1H-pyrazolo[3,4-b]pyridin-4-yl}-piperazin-1-yl-methanone] |
| 99 | O=C(c1cc(-c2ccc(O)cc2)nc2[nH]nc(/C=C/c3ccccc3F)c12)N1CCNCC1 [Example 72, [3-[(E)-2-(2-Fluoro-phenyl)-vinyl]-6-(4-hydroxy-phenyl)-1H-pyrazolo[3,4-b]pyridin-4-yl]-piperazin-1-yl-methanone] |
| 97 | O=C(c1cc(-c2ccc(O)cc2)nc2[nH]nc(/C=C/c3cccc(C(F)(F)F)c3)c12)N1CCNCC1 [Example 46, {6-(4-Hydroxy-phenyl)-3-[(E)-2-(3-trifluoromethylphenyl)-vinyl]-1 H-pyrazolo[3,4-b]pyridin-4-yl}-piperazin-1-yl-methanone] |
| 95 | CCc1ccc(/C=C/c2n[nH]c3nc(-c4ccc(O)cc4)cc(C(=O)N4CCNCC4)c23)cc1 [Example 53, [3-[(E)-2-(4-Ethyl-phenyl)-vinyl]-6-(4-hydroxy-phenyl)-1H-pyrazolo[3,4-b]pyridin-4-yl]-piperazin-1-yl-methanone] |
| 95 | CC(C)(C)c1ccc(/C=C/c2n[nH]c3nc(-c4ccc(O)cc4)cc(C(=O)N4CCNCC4)c23)cc1 [Example 54, [3-[(E)-2-(4-tert-Butyl-phenyl)-vinyl]-6-(4-hydroxy-phenyl)-1H-pyrazolo[3,4-b]pyridin-4-yl]-piperazin-1-yl-methanone] |
| 61 | O=C(c1cc(-c2ccc(O)cc2)nc2[nH]nc(/C=C/c3ccc(Cl)c(Cl)c3)c12)N1CCNCC1 [Example 45, [3-[(E)-2-(3,4-Dichloro-phenyl)-vinyl]-6-(4-hydroxy-phenyl)-1H-pyrazolo[3,4-b]pyridin-4-yl]-piperazin-1-yl-methanone] |
| 98 | O=C(c1cc(-c2ccc(O)cc2)nc2[nH]nc(/C=C/c3cccc(N4CCOCC4)c3)c12)N1CCNCC1 [Example 27, {6-(4-Hydroxy-phenyl)-3-[(E)-2-(3-morpholin-4-yl-phenyl)-vinyl]-1H-pyrazolo[3,4-b]pyridin-4-yl}-piperazin-1-yl-methanone] |
